From US11655216B2 (priority 2016, dated 2023)
Where two headings read alike, the source gives them in different places.

Experiments:
[1] = molecular target: T1, glutathione-S-transferase (GST) tagged LXRalpha LBD (ligand binding domain) (Homo sapiens, UniProt Q13133); assay: biochemical
T1 construct: purchased Invitrogen pv4655
T1 sequence (Q13133 209-447 limits assumed): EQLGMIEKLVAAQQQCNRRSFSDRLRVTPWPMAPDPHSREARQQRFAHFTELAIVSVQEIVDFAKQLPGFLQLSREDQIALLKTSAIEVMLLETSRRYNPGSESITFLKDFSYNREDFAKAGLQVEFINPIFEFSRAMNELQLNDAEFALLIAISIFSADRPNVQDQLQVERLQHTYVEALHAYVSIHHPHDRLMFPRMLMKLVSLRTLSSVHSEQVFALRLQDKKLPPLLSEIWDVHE
Procedure, shortened: (§1)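 Measures ligand-driven coactivator peptide binding by time-resolved energy transfer between terbium-tagged anti-GST antibody and fluorescein-labelled peptide. Incubation is at room temperature.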

[2] = molecular target: T2, glutathione-S-transferase (GST) tagged LXRbeta LBD (ligand binding domain) (Homo sapiens, UniProt P55055); assay: LanthaScreen TR-FRET Liver X Receptor Coactivator Assay, LXR beta; type: biochemical; conditions: for EC50: LXR beta IP, potency (Inflection Point), compound-induced co-activator recruitment, TR-FRET; for Emax: read-out: LXR beta actiivty at max dose, efficacy (% Emax) in relation to reference dual agonist T0901317
T2 construct: purchased Invitrogen pv4658
T2 sequence (P55055 222-460 limits assumed): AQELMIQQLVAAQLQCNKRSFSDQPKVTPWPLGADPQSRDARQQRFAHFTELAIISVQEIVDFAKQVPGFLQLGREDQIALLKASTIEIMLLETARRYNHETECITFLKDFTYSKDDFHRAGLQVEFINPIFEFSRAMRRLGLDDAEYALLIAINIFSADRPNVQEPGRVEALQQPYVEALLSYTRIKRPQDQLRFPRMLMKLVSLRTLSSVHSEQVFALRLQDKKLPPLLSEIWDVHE
Procedure, shortened: as §1

[3] = LXR alpha IP, potency (Inflection Point), compound-induced co-activator recruitment, TR-FRET
[4] = read-out: LXR alpha actiivty at max dose, efficacy (% Emax) in relation to reference dual agonist T0901317
[5] = potency (Inflection Point), compound-induced co-activator recruitment, TR-FRET
[6] = efficacy (% Emax) in relation to reference dual agonist T0901317, read-out: LXR alpha actiivty at max dose
[7] = efficacy (% Emax) in relation to reference dual agonist T0901317

Question: `COc1cccc([C@@](O)(C(=O)N2CCC([C@H]3C[C@H]3CCOc3ccc(C(=O)N(C)C)c(Cl)c3)CC2)C(F)(F)F)c1` (single isomer, unassigned) [Example 10-1, 2-chloro-N,N-dimethyl-4-(2-((1S,2R or 1R, 2S)-2-(1-((R or S)-3,3,3-trifluoro-2-hydroxy-2-(3-methoxyphenyl)propanoyl)piperidin-4-yl)cyclopropyl)ethoxy)benzamide] was tested. Which EC50 ([1]; LXR alpha IP) did it give?
Answer: 117 nM

Question: What about the Emax ([1]; read-out: LXR alpha actiivty at max dose) of the same compound?
Answer: 14%

Question: What about the EC50 [2] of the same compound?
Answer: 5 nM

Question: What about the Emax [2] of the same compound?
Answer: 66%

Question: Which EC50 [1, 3] does the source give for `CN(C(=O)c1ccc(OCCCCC2CCN(C(=O)[C@](O)(c3ccccc3)C(F)(F)F)CC2)cc1Cl)C1COC1` (single isomer, unassigned) [Example 8-13, (R or S)-2-chloro-N-methyl-N-(oxetan-3-yl)-4-(4-(1-(3,3,3-trifluoro-2-hydroxy-2-phenylpropanoyl)piperidin-4-yl)butoxy) benzamide] here?
Answer: 412 nM

Question: What about the Emax [1, 4] of the same compound?
Answer: 29%

Question: What about the EC50 [2] of the same compound?
Answer: 22 nM

Question: What about the Emax [2] of the same compound?
Answer: 73%

Question: Which results are given for `CN(C)C(=O)c1ccc(OCC[C@H]2CC23CCN(C(=O)[C@@](N)(c2ccccc2)C(F)(F)F)CC3)cc1Cl` (single isomer, unassigned) [Example 12-8, 4-(2-((R or S)-6-((S or R)-2-amino-3,3,3-trifluoro-2-phenylpropanoyl)-6-azaspiro[2.5]octan-1-yl)ethoxy)-2-chloro-N,N-dimethylbenzamide]?
Answer: EC50 [1, 3]: 2230 nM; Emax [1, 4]: 23%; EC50 [2]: 135 nM; Emax [2]: 67%

Question: `Cc1cc(OC2CC(CC3CCN(C(=O)C(O)(c4cccc(OC5CC5)c4)C(F)(F)F)CC3)C2)ccc1C(=O)N(C)C` (single isomer, unassigned) [Example 37-12, (R or S)-4-(3-((1-(2-(3-cyclopropoxyphenyl)-3,3,3-trifluoro-2-hydroxypropanoyl)piperidin-4-yl)methyl)cyclobutoxy)-N,N,2-trimethylbenzamide] was tested. Which “LXR alpha IP” value [1, 5] did it give?
Answer: No IP

Question: And the Emax [1, 4]?
Answer: 0%

Question: And the EC50 [2]?
Answer: 63 nM

Question: What about the Emax [2] of the same compound?
Answer: 106%

Question: How did the EC50 [1, 3] turn out when `O=C(c1ccc(OCCCCC2CCN(C(=O)[C@](O)(c3ccccc3)C(F)(F)F)CC2)cc1Cl)N1CC[C@@H](O)C1` (single isomer, unassigned) [Example 8-3, (R or S)-1-(4-(4-(3-chloro-4-((R or S)-3-hydroxy-pyrrolidine-1-carbonyl)phenoxy)butyl)piperidin-1-yl)-3,3,3-trifluoro-2-hydroxy-2-phenylpropan-1-one] was run?
Answer: 1010 nM

Question: And the Emax [1, 4]?
Answer: 26%

Question: What about the EC50 [2] of the same compound?
Answer: 17 nM

Question: What about the Emax [2] of the same compound?
Answer: 39%

Question: For `CN(C)CCCNC(=O)c1ccc(OCCCCC2CCN(C(=O)[C@](O)(c3ccccc3)C(F)(F)F)CC2)cc1Cl` (single isomer, unassigned) [Example 8-19, (R or S)-2-chloro-N-(3-(dimethylamino)propyl)-4-(4-(1-(3,3,3-trifluoro-2-hydroxy-2-phenylpropanoyl)piperidin-4-yl)butoxy) benzamide], which EC50 [1, 3] is on record?
Answer: 1240 nM

Question: And the Emax [1, 4]?
Answer: 36%

Question: What about the EC50 [2] of the same compound?
Answer: 33 nM

Question: And the Emax [2]?
Answer: 53%

Question: Which Emax [1, 6] does the source give for `CN(C)C(=O)c1ccc(OCC(F)CCC2CCN(C(=O)C(O)(c3ccccc3)C(F)(F)F)CC2)cc1Cl` (single isomer, unassigned) [Example 20-1, 2-chloro-4-(2-fluoro-4-(1-((R or S)-3,3,3-trifluoro-2-hydroxy-2-phenylpropanoyl)piperidin-4-yl)butoxy)-N,N-dimethylbenzamide] here?
Answer: 26%

Question: What about the EC50 ([1]; potency (Inflection Point), compound-induced co-activator recruitment, TR-FRET, read-out: LXR alpha IP) of the same compound?
Answer: 1430 nM

Question: What about the EC50 [2] of the same compound?
Answer: 80 nM

Question: And the Emax [2]?
Answer: 72%

Question: For `CN(C)C(=O)c1ccc(OCCCCC2(C)CCN(C(=O)C3(c4ccccc4)CCCC3)CC2)cc1Cl` [Example 9-1, 2-chloro-N,N-dimethyl-4-(4-(4-methyl-1-(1-phenylcyclopentanecarbonyl)piperidin-4-yl)butoxy)benzamide], which EC50 [1, 3] is on record?
Answer: 411 nM

Question: And the Emax [1, 4]?
Answer: 13%

Question: What about the EC50 [2] of the same compound?
Answer: 51 nM

Question: What about the Emax [2] of the same compound?
Answer: 88%

Question: With `CN(C)C(=O)c1ccc(OCCCCC2CCN(C(=O)C(C)(C)c3ccccc3)CC2)cc1Cl` [Example 3-6, 2-chloro-N,N-dimethyl-4-(4-(1-(2-methyl-2-phenylpropanoyl)piperidin-4-yl)butoxy)benzamide] as the compound, how does the “LXR alpha IP” value [1, 5] read?
Answer: No IP

Question: What about the Emax [1, 4] of the same compound?
Answer: 8%

Question: And the EC50 [2]?
Answer: 77 nM

Question: And the Emax [2]?
Answer: 64%

Question: How did the EC50 [1, 3] turn out when `CN(C)C(=O)c1ccc(OCCC2CC23CCN(C(=O)C2(c4ccccc4C(F)(F)F)CCC2)CC3)cc1Cl` (single isomer, unassigned) [Example 12-6, (R or S)-2-chloro-N,N-dimethyl-4-(2-(6-(1-(2-(trifluoromethyl)phenyl)cyclobutanecarbonyl)-6-azaspiro[2.5]octan-1-yl)ethoxy)benzamide] was run?
Answer: 80 nM

Question: And the Emax [1, 4]?
Answer: 48%

Question: And the EC50 [2]?
Answer: 4 nM

Question: What about the Emax [2] of the same compound?
Answer: 68%

Question: How did the EC50 [1, 3] turn out when `CC(C)Oc1cccc(C(O)(C(=O)N2CCC(CCCCOc3ccc(C(=O)N(C)C)c(Cl)c3)CC2)C(F)(F)F)c1` (single isomer, unassigned) [Example 3-11, (S or R)-2-chloro-N,N-dimethyl-4-(4-(1-(3,3,3-trifluoro-2-hydroxy-2-(3-isopropoxyphenyl)propanoyl)piperidin-4-yl)butoxy)benzamide] was run?
Answer: 614 nM

Question: And the Emax [1, 4]?
Answer: 21%

Question: What about the EC50 [2] of the same compound?
Answer: 9 nM

Question: And the Emax [2]?
Answer: 80%

Question: For `CC(CCCOc1ccc(C(=O)N(C)C)c(Cl)c1)C1CCN(C(=O)C(O)(c2ccccc2)C(F)(F)F)CC1` (single isomer, unassigned) [Example 26-3, 2-chloro-N,N-dimethyl-4-((S or R)-4-(1-((R or S)-3,3,3-trifluoro-2-hydroxy-2-phenylpropanoyl)piperidin-4-yl)pentyloxy)benzamide], which EC50 [1, 3] is on record?
Answer: 125 nM

Question: And the “LXR alpha actiivty at max dose” value [1, 7]?
Answer: 48%

Question: What about the EC50 [2] of the same compound?
Answer: 6 nM

Question: What about the “LXR beta actiivty at max dose” value [2, 7] of the same compound?
Answer: 77%

Question: For `COc1cccc([C@@](O)(C(=O)N2CCC(CC[C@H](C)COc3ccc(C(N)=O)c(Cl)c3)CC2)C(F)(F)F)c1` (single isomer, unassigned) [Example 24-1, 2-chloro-4-((R or S)-2-methyl-4-(1-((S or R)-3,3,3-trifluoro-2-hydroxy-2-(3-methoxyphenyl)propanoyl)piperidin-4-yl)butoxy)benzamide], which Emax [1, 6] is on record?
Answer: 14%

Question: And the “LXR alpha IP” value [1, 5]?
Answer: No IP

Question: And the EC50 [2]?
Answer: 33 nM

Question: And the Emax [2]?
Answer: 54%

Question: What does the source list for `CN(C)C(=O)c1ccc(OCC(C)(C)CCC2CCN(C(=O)C(O)(c3ccccc3)C(F)(F)F)CC2)cc1Cl` (single isomer, unassigned) [Example 29-1, (R or S)-2-chloro-4-(2,2-dimethyl-4-(1-(3,3,3-trifluoro-2-hydroxy-2-phenylpropanoyl)piperidin-4-yl)butoxy)-N,N-dimethylbenzamide]?
Answer: EC50 [1, 3]: 911 nM; Emax [1, 4]: 27%; EC50 [2]: 173 nM; Emax [2]: 48%

Question: How did the EC50 [1, 3] turn out when `CN(C(=O)c1ccc(OCCCCC2CCN(C(=O)[C@](O)(c3ccccc3)C(F)(F)F)CC2)cc1Cl)C1CC1` (single isomer, unassigned) [Example 8-12, (R or S)-2-chloro-N-cyclopropyl-N-methyl-4-(4-(1-(3,3,3-trifluoro-2-hydroxy-2-phenylpropanoyl)piperidin-4-yl)butoxy) benzamide] was run?
Answer: 351 nM

Question: What about the Emax [1, 4] of the same compound?
Answer: 7%

Question: What about the EC50 [2] of the same compound?
Answer: 16 nM

Question: And the Emax [2]?
Answer: 64%

Question: `COc1ccccc1[C@@](O)(C(=O)N1CCC2(CC1)C[C@H]2CCCOc1ccc(C(=O)N(C)C)c(Cl)c1)C(F)(F)F` (single isomer, unassigned) [Example 14-3, 2-chloro-N,N-dimethyl-4-(3-((R or S)-6-((R or S)-3,3,3-trifluoro-2-hydroxy-2-(2-methoxyphenyl)propanoyl)-6-azaspiro[2.5]octan-1-yl)propoxy)benzamide] was tested. Which “LXR alpha IP” value [1, 5] did it give?
Answer: No IP

Question: What about the Emax [1, 4] of the same compound?
Answer: 6%

Question: And the EC50 [2]?
Answer: 41 nM

Question: What about the Emax [2] of the same compound?
Answer: 81%

Question: Which Emax [1, 6] does the source give for `COc1cccc(C(O)(C(=O)N2CCC(CCCCOc3ccc(C(=O)N(C)C)c(OC)c3)CC2)C(F)(F)F)c1` (single isomer, unassigned) [Example 5-1, (R or S)-2-methoxy-N,N-dimethyl-4-(4-(1-(3,3,3-trifluoro-2-hydroxy-2-(3-methoxyphenyl)propanoyl)piperidin-4-yl)butoxy)benzamide] here?
Answer: 7%

Question: And the “LXR alpha IP” value [1, 5]?
Answer: No IP

Question: What about the EC50 [2] of the same compound?
Answer: 36 nM

Question: And the Emax [2]?
Answer: 66%
